The record followed here is patent US11802120B2, “Fused cyclic urea derivatives as CRHR2 antagonist” (RaQualia Pharma Inc., priority 2018, dated 2023).

Bounds are passed on as bounds.

The target of this experiment is T1, human CRHR2-alpha (Homo sapiens, UniProt Q13324).
T1 sequence (Q13324 1-411): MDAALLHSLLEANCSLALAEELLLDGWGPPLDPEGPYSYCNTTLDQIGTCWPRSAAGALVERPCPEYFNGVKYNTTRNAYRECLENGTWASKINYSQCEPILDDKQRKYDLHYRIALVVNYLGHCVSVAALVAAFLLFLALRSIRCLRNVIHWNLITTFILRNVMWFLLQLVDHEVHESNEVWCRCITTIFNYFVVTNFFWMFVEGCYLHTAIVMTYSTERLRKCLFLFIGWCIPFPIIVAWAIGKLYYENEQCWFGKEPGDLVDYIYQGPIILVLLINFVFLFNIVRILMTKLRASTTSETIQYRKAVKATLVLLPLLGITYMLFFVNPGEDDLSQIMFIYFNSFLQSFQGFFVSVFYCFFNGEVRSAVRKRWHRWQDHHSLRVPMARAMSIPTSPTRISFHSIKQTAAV
The experiment can be described thus: cAMP functional assay for human CRHR2 (LANCE Ultra cAMP, TR-FRET). The class given is cell-based. The following applies: CHO-K1 cells expressing human CRHR2-alpha, agonist human urocortin2 at EC80, cAMP; read-out: IC50 against CRHR2. An outline of the steps: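 Antagonism measured in CHO-K1 cells stably expressing the receptor, serum-starved 7 h then cryopreserved. Thawed cells in HBSS buffer with 0.1% BSA, 0.5 mM IBMX, 5 mM Hepes pH 7.4 were preincubated with compound 30 min at 25° C, then stimulated 30 min with EC80 agonist: urocortin2 for CRHR2, CRF for CRHR1.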
`Cc1ncc(Cl)cc1C(=O)N[C@H]1CC[C@H](Cn2c(=O)n(-c3cccc(-c4ncco4)c3)c3ccccc32)CC1` [Example 516, 5-chloro-2-methyl-N-((1r,4r)-4-((3-(3-(oxazol-2-yl)phenyl)-2-oxo-2,3-dihydro-1H-benzo [d]imidazol-1-yl)methyl)cyclo-hexyl)nicotinamide]: the IC50 was less than 300 nM. As to `Cc1ncc(Cl)cc1C(=O)N[C@H]1CC[C@H](Cn2c(=O)n(-c3cccc(-c4cncn4C)c3)c3ccccc32)CC1` [Example 517, 5-chloro-2-methyl-N-((1r,4r)-4-((3-(3-(1-methyl-1H-imidazol-5-yl)phenyl)-2-oxo-2,3-dihydro-1H-benzo[d]imidazol-1-yl)methyl)cyclohexyl)nicotinamide], the 50% inhibitory concentration (IC50) is less than 300 nM. For `Cc1ncc(Cl)cc1C(=O)N[C@H]1CC[C@H](Cn2c(=O)n(-c3ccc(-c4nccs4)cc3)c3ccccc32)CC1` [Example 518, 5-chloro-2-methyl-N-((1r,4r)-4-((2-oxo-3-(4-(thiazol-2-yl)phenyl)-2,3-dihydro-1H-benzo [d]imidazol-1-yl)methyl)cyclo-hexyl)nicotinamide] the value was less than 300 nM; for `Cc1ncc(Cl)cc1C(=O)N[C@H]1CC[C@H](Cn2c(=O)n(-c3ccnc(N4CCOCC4)c3)c3ccccc32)CC1` [Example 519, 5-chloro-2-methyl-N-((1r,4r)-4-((3-(2-morpholinopyridin-4-yl)-2-oxo-2,3-dihydro-1H-benzo[d]imidazol-1-yl)methyl)cyclohexyl)nicotinamide], less than 300 nM; for `Cc1ncc(Cl)cc1C(=O)N[C@H]1CC[C@H](Cn2c(=O)n(-c3cccc(-n4ccnc4)n3)c3ccccc32)CC1` [Example 520, N-((1r,4r)-4-((3-(6-(1H-imidazol-1-yl)pyridin-2-yl)-2-oxo-2,3-dihydro-1H-benzo[d]imidazol-1-yl)methyl)cyclo-hexyl)-5-chloro-2-methyl-nicotinamide], less than 300 nM. For `Cc1ncc(Cl)cc1C(=O)N[C@H]1CC[C@H](Cn2c(=O)n(-c3ccnc(-c4cnco4)c3)c3ccccc32)CC1` [Example 521, 5-chloro-2-methyl-N-((1r,4r)-4-((3-(2-(oxazol-5-yl)pyridin-4-yl)-2-oxo-2,3-dihydro-1H-benzo[d]imidazol-1-yl)methyl)cyclohexyl)nicotinamide] the value was less than 300 nM; for `CNc1ncc(-n2c(=O)n(C[C@H]3CC[C@H](NC(=O)c4cc(Cl)cnc4C)CC3)c3ccccc32)cc1Cl` [Example 522, 5-chloro-N-((1r,4r)-4-((3-(5-chloro-6-(methylamino)pyridin-3-yl)-2-oxo-2,3-dihydro-1H-benzo[d]imidazol-1-yl)methyl)cyclohexyl)-2-methyl-nicotinamide], less than 300 nM; for `O=C(N[C@H]1CC[C@H](Cn2c(=O)n(-c3ccc(N4CCNC4=O)nc3)c3ccccc32)CC1)c1cc(Cl)cnc1C(F)F` [Example 523, 5-chloro-2-(difluoromethyl)-N-((1r,4r)-4-((2-oxo-3-(6-(2-oxoimidazolidin-1-yl)pyridin-3-yl)-2,3-dihydro-1H-benzo[d]imidazol-1-yl)methyl)cyclohexyl)nicotinamide], less than 300 nM. Turning to `CN1CCN(c2ccc(-n3c(=O)n(C[C@H]4CC[C@H](NC(=O)c5cc(Cl)cnc5C(F)F)CC4)c4ccccc43)cn2)C1=O` [Example 524, 5-chloro-2-(difluoromethyl)-N-((1r,4r)-4-((3-(6-(3-methyl-2-oxoimidazolidin-1-yl)pyridin-3-yl)-2-oxo-2,3-dihydro-1H-benzo[d]imidazol-1-yl)methyl)cyclohexyl) nicotinamide], the IC50 was less than 300 nM. For `CNC(=O)c1ccc(-n2c(=O)n(C[C@H]3CC[C@H](NC(=O)c4cc(Cl)cnc4C(F)F)CC3)c3cccc(C)c32)cn1` [Example 527, 5-(3-(((1r,4r)-4-(5-chloro-2-(difluoromethyl)nicotinamido)cyclohexyl)methyl)-7-methyl-2-oxo-2,3-dihydro-1H-benzo [d]imidazol-1-yl)-N-methylpicolinamide] the value was less than 300 nM; for `CNC(=O)c1ccc(-n2c(=O)n(C[C@H]3CC[C@H](NC(=O)c4cc(Cl)cnc4C(F)F)CC3)c3cc(OC)ccc32)cn1` [Example 528, 5-(3-(((1r,4r)-4-(5-chloro-2-(difluoromethyl)nicotinamido)cyclohexyl)methyl)-5-methoxy-2-oxo-2,3-dihydro-1H-benzo [d]imidazol-1-yl)-N-methylpicolinamide], less than 300 nM; for `CNC(=O)c1ccc(-n2c(=O)n(C[C@H]3CC[C@H](NC(=O)c4cc(Cl)cnc4C(F)F)CC3)c3cc(C)ccc32)cn1` [Example 529, 5-(3-(((1r,4r)-4-(5-chloro-2-(difluoromethyl)nicotinamido)cyclohexyl)methyl)-5-methyl-2-oxo-2,3-dihydro-1H-benzo [d]imidazol-1-yl)-N-methylpicolinamide], less than 300 nM.

Turning to `CNC(=O)c1ccc(-n2c(=O)n(C[C@H]3CC[C@H](NC(=O)c4cc(Cl)cnc4C(F)F)CC3)c3cc(F)ccc32)cn1` [Example 530, 5-(3-(((1r,4r)-4-(5-chloro-2-(difluoromethyl)nicotinamido)cyclohexyl)methyl)-5-fluoro-2-oxo-2,3-dihydro-1H-benzo [d]imidazol-1-yl)-N-methylpicolinamide], the IC50 was less than 300 nM. For `CNC(=O)c1ccc(-n2c(=O)n(C[C@H]3CC[C@H](NC(=O)c4cc(Cl)ccc4OC(F)(F)F)CC3)c3ccccc32)cn1` [Example 531, 5-(3-(((1r,4r)-4-(5-chloro-2-(trifluoromethoxy)benzamido)cyclohexyl)methyl)-2-oxo-2,3-dihydro-1H-benzo[d]imidazol-1-yl)-N-methyl-picolinamide], the half-maximal inhibitory concentration (IC50) is less than 300 nM.

With `CNC(=O)c1ccc(-n2c(=O)n(C[C@H]3CC[C@H](NC(=O)c4cc(C(F)(F)F)ccc4C)CC3)c3ccccc32)cn1` [Example 532, N-methyl-5-(3-(((1r,4r)-4-(2-methyl-5-(trifluoromethyl)benzamido)cyclohexyl)methyl)-2-oxo-2,3-dihydro-1H-benzo[d]imidazol-1-yl) picolinamide], the IC50 is less than 300 nM. For the compound `CNC(=O)c1ccc(-n2c(=O)n(C[C@H]3CC[C@H](NC(=O)c4cc(Cl)ccc4OC(F)F)CC3)c3ccccc32)cn1` [Example 533, 5-(3-(((1r,4r)-4-(5-chloro-2-(difluoromethoxy)benzamido)cyclohexyl)methyl)-2-oxo-2,3-dihydro-1H-benzo[d]imidazol-1-yl)-N-methylpicolinamide], the IC50 is less than 300 nM.

Turning to `CNC(=O)c1ccc(-n2c(=O)n(C[C@H]3CC[C@H](NC(=O)c4cc(Cl)cnc4N)CC3)c3ccccc32)cn1` [Example 534, 5-(3-(((1r,4r)-4-(2-amino-5-chloronicotinamido)cyclo-hexyl)methyl)-2-oxo-2,3-dihydro-1H-benzo[d]imidazol-1-yl)-N-methylpicolinamide], the half-maximal inhibitory concentration (IC50) is less than 300 nM. For `Cc1ncc(Cl)cc1C(=O)N[C@H]1CC[C@H](Cn2c(=O)n(-c3cccc(-n4ccnn4)c3)c3ccccc32)CC1` [Example 537, N-((1r,4r)-4-((3-(3-(1H-1,2,3-triazol-1-yl)phenyl)-2-oxo-2,3-dihydro-1H-benzo[d]imidazol-1-yl)methyl)cyclohexyl)-5-chloro-2-methylnicotinamide] the value was less than 300 nM.

`Cc1ncc(Cl)cc1C(=O)N[C@H]1CC[C@H](Cn2c(=O)n(-c3cccc(-n4ccnc4)c3)c3ccccc32)CC1` [Example 539, N-((1r,4r)-4-((3-(3-(1H-imidazol-1-yl)phenyl)-2-oxo-2,3-dihydro-1H-benzo[d]imidazol-1-yl)methyl)cyclohexyl)-5-chloro-2-methylnicotinamide]: the IC50 is less than 300 nM. Consider `Cc1ncc(Cl)cc1C(=O)N[C@H]1CC[C@H](Cn2c(=O)n(-c3cccc(-n4cccn4)c3)c3ccccc32)CC1` [Example 541, N-((1r,4r)-4-((3-(3-(1H-pyrazol-1-yl)phenyl)-2-oxo-2,3-dihydro-1H-benzo[d]imidazol-1-yl)methyl)cyclohexyl)-5-chloro-2-methylnicotinamide], for which the IC50 is less than 300 nM. For `CNC(=O)c1ccc(-n2c(=O)n(C[C@H]3CC[C@H](NC(=O)c4cc(Cl)cnc4Cl)CC3)c3ccccc32)cn1` [Example 542, 5-(3-(((1r,4r)-4-(2,5-dichloronicotinamido)cyclohexyl)methyl)-2-oxo-2,3-dihydro-1H-benzo[d]imidazol-1-yl)-N-methylpicolinamide] the value was less than 300 nM; for `O=C(N[C@H]1CC[C@H](Cn2c(=O)n(-c3ccc(NC4CC4)nc3)c3ccccc32)CC1)c1cc(Cl)cnc1C(F)F` [Example 543, 5-chloro-N-((1r,4r)-4-((3-(6-(cyclopropylamino)pyridin-3-yl)-2-oxo-2,3-dihydro-1H-benzo[d]imidazol-1-yl)methyl)cyclohexyl)-2-(difluoro-methyl)nicotinamide], less than 300 nM; for `CNc1ncc(-n2c(=O)n(C[C@H]3CC[C@H](NC(=O)c4cc(Cl)cnc4C(F)(F)F)CC3)c3ccccc32)cc1C` [Example 544, 5-chloro-N-((1r,4r)-4-((3-(5-methyl-6-(methylamino)pyridin-3-yl)-2-oxo-2,3-dihydro-1H-benzo[d]imidazol-1-yl)methyl)cyclo-hexyl)-2-(trifluoromethyl) nicotinamide], less than 300 nM.
